Results: article PMC5848165 (Toxins, 2018)
Entries after “also recorded” stand apart in the source; their conditions may differ. Residues, ends and D or L forms follow the SMILES beside them.

Key:
Nav1.5 = test: Whole-cell patch clamp, WT Nav1.5 in HEK293 cells; assay type: cell-based, rat; details: 1 µM, −10 mV from −80 mV
Excerpt: (§1) Nine sodium channel subtypes have been identified and classified as TTX-S (Nav1.1–Nav1.4, Nav1.6, and Nav1.7) or TTX-R types (Nav1.5, Nav1.8, and Nav1.9). […] However, the subtype selectivity of JZTX-34 on the subtype of sodium channel is still unknown. In this work, effects of JZTX-34 on VGSC subtypes (Nav1.1–Nav1.8) were examined. Nav1.1–Nav1.7 were transfected into HEK293 cells and Nav1.8 currents were expressed in ND cells. Inward sodium currents were elicited by a 50 ms depolarizing potential to −10 mV from a holding potential of −80 mV every 5 s. […] No effects on other sodium channel subtypes were found (Nav1.1, Nav1.2, Nav1.4–Nav1.6, and Nav1.8) (Figure S2). […]
(§2) The HEK293T cells were maintained in standard culture conditions (5% CO2 and 37 °C). […] After culturing for 36–72 h, cells with obvious green fluorescence were selected for sodium currents recordings the internal solution for sodium currents recording that contained (in mM) 140 CsF, 5 NaCl, 10 HEPES, 3 Na2-ATP, and 10 EGTA. […]
(§3) Sodium currents were recorded from DRG, HEK293, and ND cells by the whole-cell patch-clamp technique at 25 °C. […] Experiments date were acquired from whole-cell Axon 700B patch clamp amplifier (Molecular Devices, Sunnyvale, CA, USA) and analyzed by the program Clampfit10.0 (Molecular Devices, Sunnyvale, CA, USA) and Sigmaplot. […]

Nav1.7 D816R = target: T1, Nav1.7 D816R (Homo sapiens, UniProt Q15858, D827R); test: Whole-cell patch clamp, Nav1.7 mutant D816R in HEK293 cells; assay type: cell-based
T1 construct: expressed in transfected cells; host or cells: HEK293 (HEK293T) cells, transient
T1 sequence (Q15858 other isoform, or with tags, fused parts or gaps D816R): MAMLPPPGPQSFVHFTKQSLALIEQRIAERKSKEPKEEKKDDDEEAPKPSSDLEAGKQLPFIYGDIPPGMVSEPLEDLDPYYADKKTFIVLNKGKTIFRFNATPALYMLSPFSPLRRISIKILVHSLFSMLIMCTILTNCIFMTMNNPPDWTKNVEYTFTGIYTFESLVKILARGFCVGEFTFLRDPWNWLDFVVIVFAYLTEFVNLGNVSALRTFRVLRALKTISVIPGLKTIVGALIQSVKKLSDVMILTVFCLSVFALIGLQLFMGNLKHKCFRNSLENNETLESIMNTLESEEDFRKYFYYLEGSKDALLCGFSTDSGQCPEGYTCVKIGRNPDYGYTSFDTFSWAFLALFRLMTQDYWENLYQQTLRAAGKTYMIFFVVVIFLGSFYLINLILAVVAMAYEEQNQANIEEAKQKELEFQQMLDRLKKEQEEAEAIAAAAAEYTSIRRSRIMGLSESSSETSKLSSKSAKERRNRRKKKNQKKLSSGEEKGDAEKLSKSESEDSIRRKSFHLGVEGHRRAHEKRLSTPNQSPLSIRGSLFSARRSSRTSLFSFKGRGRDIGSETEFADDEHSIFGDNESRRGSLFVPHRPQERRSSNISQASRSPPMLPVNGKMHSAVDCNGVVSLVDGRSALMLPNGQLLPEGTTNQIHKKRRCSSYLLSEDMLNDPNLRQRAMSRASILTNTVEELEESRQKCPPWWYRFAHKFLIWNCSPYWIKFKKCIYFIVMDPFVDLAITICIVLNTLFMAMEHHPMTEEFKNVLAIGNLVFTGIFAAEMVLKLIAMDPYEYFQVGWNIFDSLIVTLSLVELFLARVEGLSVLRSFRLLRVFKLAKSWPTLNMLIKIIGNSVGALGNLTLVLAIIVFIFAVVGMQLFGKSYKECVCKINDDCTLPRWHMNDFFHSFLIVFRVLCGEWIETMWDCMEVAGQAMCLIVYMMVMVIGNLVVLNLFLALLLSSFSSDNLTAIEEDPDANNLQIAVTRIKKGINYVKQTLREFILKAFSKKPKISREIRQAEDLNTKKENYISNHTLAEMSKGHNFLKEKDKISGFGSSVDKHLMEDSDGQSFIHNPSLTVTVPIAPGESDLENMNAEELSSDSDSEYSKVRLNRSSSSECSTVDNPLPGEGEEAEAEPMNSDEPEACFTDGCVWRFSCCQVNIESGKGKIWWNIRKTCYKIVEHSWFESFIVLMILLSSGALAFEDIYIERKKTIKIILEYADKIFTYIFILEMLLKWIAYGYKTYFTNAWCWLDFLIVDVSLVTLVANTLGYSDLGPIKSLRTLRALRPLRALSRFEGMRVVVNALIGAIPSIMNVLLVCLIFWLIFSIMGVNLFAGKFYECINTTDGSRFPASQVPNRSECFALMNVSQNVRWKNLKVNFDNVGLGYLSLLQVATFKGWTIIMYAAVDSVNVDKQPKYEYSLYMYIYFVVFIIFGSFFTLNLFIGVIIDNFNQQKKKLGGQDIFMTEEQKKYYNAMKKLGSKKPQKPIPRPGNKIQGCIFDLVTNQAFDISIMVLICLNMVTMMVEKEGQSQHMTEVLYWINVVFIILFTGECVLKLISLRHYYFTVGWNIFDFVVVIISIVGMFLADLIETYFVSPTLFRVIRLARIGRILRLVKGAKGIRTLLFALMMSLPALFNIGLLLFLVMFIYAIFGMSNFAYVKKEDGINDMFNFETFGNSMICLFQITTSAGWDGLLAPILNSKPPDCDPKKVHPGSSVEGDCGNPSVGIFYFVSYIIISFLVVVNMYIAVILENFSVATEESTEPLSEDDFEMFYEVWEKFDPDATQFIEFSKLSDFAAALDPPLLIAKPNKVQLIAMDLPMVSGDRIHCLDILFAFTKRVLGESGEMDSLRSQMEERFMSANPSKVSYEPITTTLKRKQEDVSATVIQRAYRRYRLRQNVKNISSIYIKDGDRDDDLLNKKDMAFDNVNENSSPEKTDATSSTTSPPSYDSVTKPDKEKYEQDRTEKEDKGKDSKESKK
T1 sequence (Q07699 19-218, further chain): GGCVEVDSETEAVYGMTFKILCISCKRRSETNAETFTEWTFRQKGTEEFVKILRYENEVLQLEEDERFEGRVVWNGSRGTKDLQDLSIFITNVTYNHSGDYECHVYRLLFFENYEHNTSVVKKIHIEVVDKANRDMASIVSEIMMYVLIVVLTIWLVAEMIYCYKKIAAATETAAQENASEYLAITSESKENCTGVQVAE
Excerpt: We next investigated the critical residues in DIIS3-S4 linker that determined the sensitivity of Nav1.7 to JZTX-34. An acidic residue, D816, is present in the DIIS3-S4 linker of Nav1.7, while the corresponding residue in Nav1.5 is an alkaline amino acid, R800. To determine whether the acidic residue D816 occupies an important role in toxin binding, we constructed two mutants: D816R of Nav1.7 and R800D of Nav1.5. One µM of JZTX-34 inhibited 54.3 ± 5.2% of WT Nav1.7 currents (Figure 4A), but only 16.8 ± 4.6% currents of D816R were inhibited at the same concentration (Figure 4B). […] To further confirm the key role of D816R in blocking Nav1.7 by JZTX-34, we examined the effect of JZTX-34 on Nav1.5 mutant R800D. […] Thus, the acidic residue D816 in DIIS3-S4 linker may be critical for the sensitivity of Nav1.7 to JZTX-34.
Figure 4 Effects of JZTX-34 on mutants of Nav1.7 and Nav1.5. (A) Amino acid sequence alignment of DII S3-S4 linker of Nav1.5 and Nav1.7 and schematic diagram of sodium channel α subunit. The positions of amino acids of interest are shaded in bold black. […]
as §2, §3
Data from Axon 700B patch clamp were analyzed by Clampfit10.0 (Molecular Devices, Sunnyvale, CA, USA). […] The G-V curves were obtained by calculating the conductance (G) at each voltage (V) using the equation G = I/(V1 − Vrev), with Vrev being the reversal potential determined for each cell individually. […]

Nav1.1 = test: Whole-cell patch clamp, Nav1.1 in HEK293 cells; assay type: cell-based, rat; details: 1 µM, −10 mV from −80 mV
Excerpt: as §1, §2, §3

Nav1.6 = test: Whole-cell patch clamp, Nav1.6 in HEK293 cells; assay type: cell-based; details: 1 µM, −10 mV from −80 mV
Excerpt: Nine sodium channel subtypes have been identified and classified as TTX-S (Nav1.1–Nav1.4, Nav1.6, and Nav1.7) or TTX-R types (Nav1.5, Nav1.8, and Nav1.9). […] However, the subtype selectivity of JZTX-34 on the subtype of sodium channel is still unknown. In this work, effects of JZTX-34 on VGSC subtypes (Nav1.1–Nav1.8) were examined. Nav1.1–Nav1.7 were transfected into HEK293 cells and Nav1.8 currents were expressed in ND cells. Inward sodium currents were elicited by a 50 ms depolarizing potential to −10 mV from a holding potential of −80 mV every 5 s. […] No effects on other sodium channel subtypes were found (Nav1.1, Nav1.2, Nav1.4–Nav1.6, and Nav1.8) (Figure S2).
as §2, with “°C). Then, 10% fetal bovine serum was added to Dulbecco’s modified Eagle’s medium.” for “°C).”
as §3

## CC(C)C[C@@H]1NC(=O)[C@H](Cc2c[nH]c3ccccc23)NC(=O)[C@H](CCC(=O)O)NC(=O)[C@H](CCCNC(=N)N)NC(=O)[C@@H](NC(=O)[C@H](C)N)CSSC[C@@H]2NC(=O)[C@@H]3CSSC[C@@H](C(=O)N[C@H](C(=O)N[C@@H](Cc4c[nH]c5ccccc45)C(=O)N[C@@H](CC(=O)O)C(=O)N[C@@H](Cc4c[nH]c5ccccc45)C(=O)N[C@H](C(=O)N[C@H](C(=O)O)C(C)C)[C@@H](C)O)C(C)C)NC(=O)[C@H](Cc4c[nH]cn4)NC(=O)[C@H](Cc4ccc(O)cc4)NC(=O)[C@@H]4CCCN4C(=O)[C@H](Cc4c[nH]c5ccccc45)NC(=O)[C@H](CCCCN)NC(=O)[C@H](CCCCN)NC(=O)[C@H](CCCNC(=N)N)NC(=O)[C@H](CSSC[C@H](NC(=O)CNC(=O)CNC1=O)C(=O)N[C@@H](CO)C(=O)N[C@@H](CCCCN)C(=O)N[C@@H](CC(=O)O)C(=O)N[C@@H](C)C(=O)N[C@@H](CC(=O)O)C(=O)N3)NC(=O)[C@H](CCC(=O)O)NC(=O)[C@H](CC(C)C)NC(=O)[C@H](Cc1c[nH]cn1)NC(=O)[C@H](C)NC2=O [JZTX-34, Jingzhaotoxin-34] (HELM PEPTIDE1{A.C.R.E.W.L.G.G.C.S.K.D.A.D.C.C.A.H.L.E.C.R.K.K.W.P.Y.H.C.V.W.D.W.T.V}$PEPTIDE1,PEPTIDE1,2:R3-16:R3|PEPTIDE1,PEPTIDE1,9:R3-21:R3|PEPTIDE1,PEPTIDE1,15:R3-29:R3$$$V2.0; N-terminus and C-terminus assumed)
Nav1.5
  effect on Nav1.5 currents: No effects; also recorded: resistant
Nav1.7 D816R; HEK293, 1 µM, read-out: inhibition of Nav1.7 D816R currents
  inhibition at 1 µM: 16.8 ± 4.6%
Nav1.7 D816R; Hill fit, n = 5
  IC50: 19.5 µM
Nav1.7 D816R; relative to WT Nav1.7
  decrease of binding affinity by D816R vs WT Nav1.7: about 32 fold
Nav1.1
  effect on Nav1.1 currents: No effects
Nav1.6
  effect on Nav1.6 currents: No effects
